Reference: patent US20080051466A1, “Isoalpha acid based protein kinase modulation cancer treatment” (Metaproteomics, LLC, priority 2006, published 2008)

Assays:
Experiment in all cases: KinaseProfiler Assay
Type in all cases: biochemical
Ros = Ros (Homo sapiens, UniProt P08922); settings: read-out: Ros, % of Control
TrkA = TrkA (Homo sapiens, UniProt P04629); settings: read-out: TrkA, % of Control
TBK1 = target: T1, TBK1 (Homo sapiens, UniProt Q9UHD2); settings: read-out: TBK1, % of Control
T1 sequence (Q9UHD2 1-729): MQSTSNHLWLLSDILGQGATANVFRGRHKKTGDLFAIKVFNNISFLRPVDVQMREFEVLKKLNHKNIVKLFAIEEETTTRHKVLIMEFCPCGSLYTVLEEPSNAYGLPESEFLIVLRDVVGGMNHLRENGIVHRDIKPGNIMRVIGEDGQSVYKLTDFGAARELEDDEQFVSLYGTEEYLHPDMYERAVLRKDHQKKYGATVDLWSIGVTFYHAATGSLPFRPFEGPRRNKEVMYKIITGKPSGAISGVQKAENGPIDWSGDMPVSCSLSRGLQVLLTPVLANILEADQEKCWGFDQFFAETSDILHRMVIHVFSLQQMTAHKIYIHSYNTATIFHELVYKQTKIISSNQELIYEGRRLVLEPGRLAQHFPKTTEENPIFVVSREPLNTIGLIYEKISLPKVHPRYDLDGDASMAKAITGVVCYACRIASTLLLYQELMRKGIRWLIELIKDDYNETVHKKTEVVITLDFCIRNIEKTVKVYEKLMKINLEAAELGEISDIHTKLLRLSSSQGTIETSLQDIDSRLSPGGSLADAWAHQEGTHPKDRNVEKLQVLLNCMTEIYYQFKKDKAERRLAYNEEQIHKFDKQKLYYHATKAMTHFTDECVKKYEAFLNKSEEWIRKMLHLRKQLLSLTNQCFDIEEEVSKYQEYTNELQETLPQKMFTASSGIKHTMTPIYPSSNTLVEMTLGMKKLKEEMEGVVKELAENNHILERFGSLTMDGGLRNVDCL

Pim-2 = Pim-2 (Homo sapiens, UniProt Q9P1W9); settings: read-out: Pim-2, % of Control
PKCα = PKCα (Homo sapiens, UniProt P17252); settings: read-out: PKCα, % of Control
HIPK2 = HIPK2 (Homo sapiens, UniProt Q9H2X6); settings: read-out: HIPK2, % of Control
DAPK2 = DAPK2 (Homo sapiens, UniProt Q9UIK4); settings: read-out: DAPK2, % of Control
HIPK3 = HIPK3 (Homo sapiens, UniProt Q9H422); settings: read-out: HIPK3, % of Control
IR = IR (Homo sapiens, UniProt P06213); settings: read-out: IR, % of Control
PKCβII = PKCβII (Homo sapiens, UniProt P05771); settings: read-out: PKCβII, % of Control
CK1δ = CK1δ (Homo sapiens, UniProt P48730); settings: read-out: CK1δ, % of Control
Sequence of CK1δ (P48730 whole entry): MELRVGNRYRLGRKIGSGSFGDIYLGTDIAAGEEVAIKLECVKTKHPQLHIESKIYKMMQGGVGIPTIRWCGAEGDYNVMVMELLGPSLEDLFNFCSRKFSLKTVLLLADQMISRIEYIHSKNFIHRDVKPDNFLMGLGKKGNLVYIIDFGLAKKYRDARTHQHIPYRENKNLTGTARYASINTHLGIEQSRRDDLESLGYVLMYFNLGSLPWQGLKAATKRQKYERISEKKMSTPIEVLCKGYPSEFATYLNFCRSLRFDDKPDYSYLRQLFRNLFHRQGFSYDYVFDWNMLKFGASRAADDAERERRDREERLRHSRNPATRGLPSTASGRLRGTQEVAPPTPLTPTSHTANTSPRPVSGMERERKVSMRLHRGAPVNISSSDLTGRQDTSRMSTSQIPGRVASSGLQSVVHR

Sequence of TrkA (P04629 33-796): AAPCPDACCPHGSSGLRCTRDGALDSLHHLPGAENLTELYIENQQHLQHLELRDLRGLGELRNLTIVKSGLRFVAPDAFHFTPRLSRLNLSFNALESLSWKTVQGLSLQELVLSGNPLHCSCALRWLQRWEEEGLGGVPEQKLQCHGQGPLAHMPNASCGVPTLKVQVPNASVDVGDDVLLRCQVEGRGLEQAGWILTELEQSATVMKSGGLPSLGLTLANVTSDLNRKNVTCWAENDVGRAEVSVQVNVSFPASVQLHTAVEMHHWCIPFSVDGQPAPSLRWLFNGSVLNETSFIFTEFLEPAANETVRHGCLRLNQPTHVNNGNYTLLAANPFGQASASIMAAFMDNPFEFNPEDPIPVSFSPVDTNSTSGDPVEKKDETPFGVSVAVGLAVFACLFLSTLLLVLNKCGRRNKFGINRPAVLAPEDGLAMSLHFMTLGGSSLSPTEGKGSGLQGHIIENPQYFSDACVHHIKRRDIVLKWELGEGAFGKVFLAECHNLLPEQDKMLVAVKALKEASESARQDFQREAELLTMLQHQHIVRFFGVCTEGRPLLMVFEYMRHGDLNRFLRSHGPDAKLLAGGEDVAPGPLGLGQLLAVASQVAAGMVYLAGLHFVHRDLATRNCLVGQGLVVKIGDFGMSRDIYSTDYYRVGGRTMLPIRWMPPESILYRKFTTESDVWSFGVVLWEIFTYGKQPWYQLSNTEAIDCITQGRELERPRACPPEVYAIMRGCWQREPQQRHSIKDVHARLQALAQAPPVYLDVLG
Sequence of PKCβII (P05771 1-673 isoform P05771-2): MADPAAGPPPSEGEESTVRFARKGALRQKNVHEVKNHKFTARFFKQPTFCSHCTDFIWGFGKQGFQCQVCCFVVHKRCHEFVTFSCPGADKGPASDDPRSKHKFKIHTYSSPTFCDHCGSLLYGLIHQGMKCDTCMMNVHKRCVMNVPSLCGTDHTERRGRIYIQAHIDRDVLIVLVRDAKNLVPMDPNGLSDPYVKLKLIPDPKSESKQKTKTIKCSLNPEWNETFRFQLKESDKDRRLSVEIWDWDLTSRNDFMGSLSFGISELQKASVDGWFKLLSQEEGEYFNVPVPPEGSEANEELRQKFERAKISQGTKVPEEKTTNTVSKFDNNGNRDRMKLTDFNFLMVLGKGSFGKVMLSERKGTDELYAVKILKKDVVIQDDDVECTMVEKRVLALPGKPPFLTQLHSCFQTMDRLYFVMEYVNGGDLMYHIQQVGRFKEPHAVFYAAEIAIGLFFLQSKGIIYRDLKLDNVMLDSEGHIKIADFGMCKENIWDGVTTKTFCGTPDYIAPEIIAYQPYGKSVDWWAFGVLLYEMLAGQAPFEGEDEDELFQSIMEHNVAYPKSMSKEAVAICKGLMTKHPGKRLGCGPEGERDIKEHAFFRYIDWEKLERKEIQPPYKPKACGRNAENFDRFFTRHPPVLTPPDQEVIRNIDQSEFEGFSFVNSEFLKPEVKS
Sequence of DAPK2 (Q9UIK4 whole entry): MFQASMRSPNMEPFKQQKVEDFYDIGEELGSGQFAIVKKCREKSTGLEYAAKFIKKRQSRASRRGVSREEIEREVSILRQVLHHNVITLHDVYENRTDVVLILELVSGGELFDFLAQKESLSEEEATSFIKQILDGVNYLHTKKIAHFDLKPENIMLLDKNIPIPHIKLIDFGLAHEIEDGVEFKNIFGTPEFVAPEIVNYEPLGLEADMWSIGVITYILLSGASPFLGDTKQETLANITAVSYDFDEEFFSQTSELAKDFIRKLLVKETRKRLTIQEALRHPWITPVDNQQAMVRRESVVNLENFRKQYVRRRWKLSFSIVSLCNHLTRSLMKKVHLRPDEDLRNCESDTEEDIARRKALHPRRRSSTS
Sequence of Pim-2 (Q9P1W9 whole entry): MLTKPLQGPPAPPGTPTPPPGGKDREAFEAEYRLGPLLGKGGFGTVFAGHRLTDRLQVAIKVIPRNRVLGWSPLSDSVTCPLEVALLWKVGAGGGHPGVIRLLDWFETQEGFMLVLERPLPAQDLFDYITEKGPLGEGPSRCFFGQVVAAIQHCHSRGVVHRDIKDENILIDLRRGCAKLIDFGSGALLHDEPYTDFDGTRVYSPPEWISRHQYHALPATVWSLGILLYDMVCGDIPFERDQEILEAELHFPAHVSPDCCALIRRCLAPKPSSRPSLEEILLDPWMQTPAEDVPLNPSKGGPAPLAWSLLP
Sequence of HIPK3 (Q9H422 whole entry): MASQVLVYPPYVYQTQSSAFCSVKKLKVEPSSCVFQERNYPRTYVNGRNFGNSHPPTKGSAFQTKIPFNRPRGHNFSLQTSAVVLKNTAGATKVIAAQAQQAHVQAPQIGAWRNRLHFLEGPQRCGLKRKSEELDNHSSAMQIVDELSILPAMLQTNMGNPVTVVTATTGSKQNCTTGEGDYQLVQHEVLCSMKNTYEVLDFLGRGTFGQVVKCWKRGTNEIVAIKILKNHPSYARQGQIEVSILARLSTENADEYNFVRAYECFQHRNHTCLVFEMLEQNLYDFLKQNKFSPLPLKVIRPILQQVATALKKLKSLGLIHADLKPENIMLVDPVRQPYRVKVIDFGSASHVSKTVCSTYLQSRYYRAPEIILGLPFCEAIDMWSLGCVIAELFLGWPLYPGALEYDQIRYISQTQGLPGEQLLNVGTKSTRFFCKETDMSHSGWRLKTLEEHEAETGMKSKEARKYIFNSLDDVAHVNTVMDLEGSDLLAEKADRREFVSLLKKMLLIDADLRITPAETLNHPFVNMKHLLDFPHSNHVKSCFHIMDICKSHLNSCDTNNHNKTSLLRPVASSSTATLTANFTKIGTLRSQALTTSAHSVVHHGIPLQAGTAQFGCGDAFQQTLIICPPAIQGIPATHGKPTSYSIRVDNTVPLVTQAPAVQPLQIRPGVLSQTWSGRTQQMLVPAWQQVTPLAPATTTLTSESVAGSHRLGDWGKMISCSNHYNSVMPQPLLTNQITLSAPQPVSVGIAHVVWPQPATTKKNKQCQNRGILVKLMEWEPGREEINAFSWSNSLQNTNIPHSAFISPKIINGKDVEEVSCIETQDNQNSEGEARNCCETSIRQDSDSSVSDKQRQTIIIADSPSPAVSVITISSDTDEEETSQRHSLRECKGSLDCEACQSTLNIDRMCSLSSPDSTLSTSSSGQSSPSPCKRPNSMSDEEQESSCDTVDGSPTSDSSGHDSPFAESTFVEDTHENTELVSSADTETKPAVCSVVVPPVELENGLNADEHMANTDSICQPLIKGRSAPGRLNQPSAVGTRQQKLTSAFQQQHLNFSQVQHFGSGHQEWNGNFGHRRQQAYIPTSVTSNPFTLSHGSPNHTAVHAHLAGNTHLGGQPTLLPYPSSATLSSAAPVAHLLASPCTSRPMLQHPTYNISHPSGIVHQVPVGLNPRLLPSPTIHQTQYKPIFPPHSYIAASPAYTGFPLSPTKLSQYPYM

- remaining activity at 1 µg/mL (Ros; 1 ug/ml): 101%
- remaining activity at 5 µg/mL (Ros; 5 ug/ml): 99%
- remaining activity at 25 µg/mL (Ros; 25 ug/ml): 85%
- remaining activity at 50 µg/mL (Ros; 50 ug/ml): 94%
- remaining activity at 1 µg/mL (TrkA; 1 ug/ml): 36%
- remaining activity at 5 µg/mL (TrkA; 5 ug/ml): 19%
- remaining activity at 25 µg/mL (TrkA; 25 ug/ml): 8%
- remaining activity at 50 µg/mL (TrkA; 50 ug/ml): 3%
- remaining activity at 1 µg/mL (TBK1; 1 ug/ml): 104%
- remaining activity at 5 µg/mL (TBK1; 5 ug/ml): 71%
- remaining activity at 25 µg/mL (TBK1; 25 ug/ml): 45%
- remaining activity at 50 µg/mL (TBK1; 50 ug/ml): 42%
- remaining activity at 1 µg/mL (Pim-2; 1 ug/ml): 104%
- remaining activity at 5 µg/mL (Pim-2; 5 ug/ml): 48%
- remaining activity at 25 µg/mL (Pim-2; 25 ug/ml): 14%
- remaining activity at 50 µg/mL (Pim-2; 50 ug/ml): 6%
- remaining activity at 1 µg/mL (PKCα; 1 ug/ml): 100%
- remaining activity at 5 µg/mL (PKCα; 5 ug/ml): 100%
- remaining activity at 25 µg/mL (PKCα; 25 ug/ml): 75%
- remaining activity at 50 µg/mL (PKCα; 50 ug/ml): 83%
- remaining activity at 1 µg/mL (HIPK2; 1 ug/ml): 110%
- remaining activity at 5 µg/mL (HIPK2; 5 ug/ml): 98%
- remaining activity at 1 µg/mL (DAPK2; 1 ug/ml): 105%
- remaining activity at 5 µg/mL (DAPK2; 5 ug/ml): 88%
- remaining activity at 25 µg/mL (DAPK2; 25 ug/ml): 45%
- remaining activity at 50 µg/mL (DAPK2; 50 ug/ml): 26%
- remaining activity at 1 µg/mL (HIPK3; 1 ug/ml): 106%
- remaining activity at 5 µg/mL (HIPK3; 5 ug/ml): 102%
- remaining activity at 50 µg/mL (HIPK3; 50 ug/ml): 59%
- remaining activity at 1 µg/mL (IR; 1 ug/ml): 120%
- remaining activity at 5 µg/mL (IR; 5 ug/ml): 108%
- remaining activity at 1 µg/mL (PKCβII; 1 ug/ml): 108%
- remaining activity at 5 µg/mL (PKCβII; 5 ug/ml): 108%
- remaining activity at 25 µg/mL (PKCβII; 25 ug/ml): 71%
- remaining activity at 50 µg/mL (PKCβII; 50 ug/ml): 79%
- remaining activity at 5 µg/mL (CK1δ; 5 ug/ml): 32%
- remaining activity at 25 µg/mL (CK1δ; 25 ug/ml): 16%
- remaining activity at 50 µg/mL (CK1δ; 50 ug/ml): 12%
SMILES: COc1cc(O)c(CC=C(C)C)c(O)c1C(=O)/C=C/c1ccc(O)cc1 [Xanthohumol, xanthohumol]
